# Reference: the PolyMetriX glass transition set
# ± gives the standard deviation of the reports.
row,SMILES,glass transition temperature [°C]
1,*c1ccc(Oc2ccc(C(=O)c3ccc(C(=O)c4ccc(C(=O)c5ccc(Oc6ccc(-c7nc(-c8ccccc8)[nH]c7*)cc6)cc5)cc4)cc3)cc2)cc1 (repeat unit),239.00
2,*Oc1ccc(OC(=O)c2ccc(C(*)=O)cc2Oc2ccc(Oc3ccccc3)cc2)cc1 (repeat unit),83.00
3,*c1ccc2c(c1)C(=O)N(c1ccc(Oc3cccc(Oc4ccc(N5C(=O)c6ccc(C(*)(C(F)(F)F)C(F)(F)F)cc6C5=O)cc4)c3)cc1)C2=O (repeat unit),241.50 ± 18
4,*c1ccc(Oc2ccc(C(=O)c3ccc(Oc4ccc(N5C(=O)c6ccc(Oc7ccc8c(c7)C(=O)N(*)C8=O)cc6C5=O)cc4)cc3)cc2)cc1 (repeat unit),243.00
5,*c1ccc(C2(c3ccc(-c4cc(-c5ccccc5)c5cc(C6(c7ccc8nc(*)cc(-c9ccccc9)c8c7)c7ccccc7C(=O)c7ccccc76)ccc5n4)cc3)c3ccccc3C(=O)c3ccccc32)cc1 (repeat unit),390.00
6,*SC1CCCC(*)C1 (repeat unit),-52.00
7,*CC(*)C(=O)OC(OCC)C(F)(F)F (repeat unit),5.00
8,*c1ccc([Si](*)(C)C)s1 (repeat unit),21.00
9,*CC(COc1ccc(-c2ccc(C#N)cc2)cc1)O* (repeat unit),94.2
10,*CCCP(C)(=O)CCCNC(=O)CCCCC(=O)N* (repeat unit),33.00
11,*O[Si](C)(C)O[Si](C)(C)O[Si](C)(C)O[Si](C)(C)O[Si](C)(C)C#Cc1ccc(C#C[Si](*)(C)C)cc1 (repeat unit),78.00
12,*Oc1ccc(Oc2ccc(NC(=O)c3ccc(Oc4ccc(Oc5ccc(C(=O)Nc6ccc(*)cc6)cc5)cc4C)cc3)cc2)cc1 (repeat unit),200.00
13,*CC(*)(F)F (repeat unit) [Poly(vinylidene fluoride)],-32.77 ± 2.3
14,*Oc1ccc(NC(=O)c2ccc(C(=O)Nc3ccc(Oc4ccc(C(=O)c5ccc(*)cc5)cc4)cc3)cc2)cc1 (repeat unit),160.00
15,*CC(*)C(=O)OC12CC3CC(C)(CC(C)(C3)C1)C2 (repeat unit),104.00
16,*c1ccc(-c2nnc(*)o2)c(OCC)c1 (repeat unit),231.00

# Second part, the compound after the results:
row,glass transition temperature [°C],SMILES
1,72.00,*Oc1ccc(/N=C/CCC/C=N/c2ccc(OC(=O)NCCCCCCNC(*)=O)cc2)cc1 (repeat unit)
2,315.00,*Oc1c(C)cc(C2(c3cc(C)c(OC(=O)c4cccc(C(*)=O)c4)c(C)c3)c3ccccc3-c3ccccc32)cc1C (repeat unit)
3,185.00,*CCCCCCCCCCCCCCc1ccc(-c2c(-c3ccccc3)cc(-c3ccc(-c4cc(-c5ccccc5)c(-c5ccc(*)cc5)c(-c5ccccc5)c4-c4ccccc4)cc3)c(-c3ccccc3)c2-c2ccccc2)cc1 (repeat unit)
4,310.00,*c1ccc(Oc2c(C)cc(Cc3cc(C)c(Oc4ccc(N5C(=O)c6ccc(-c7ccc8c(c7)C(=O)N(*)C8=O)cc6C5=O)cc4)c(C)c3)cc2C)cc1 (repeat unit)
5,62.00,*CC(*)(C)C(=O)OCCCCCCCCCCOc1ccc(/N=N/c2ccc(OC)cc2)cc1 (repeat unit)
6,131.00,*c1ccc2c(c1)Sc1cc(-c3sc4cc(*)sc4c3CCCCC)ccc1N2CCCCCCCCCC (repeat unit)
7,29.20,*O[Si](*)(C)CCCCCCCCCCC(=O)Oc1ccc(-c2ccc(OC(=O)c3ccc(OCC(C)CC)cc3)cc2)cc1 (repeat unit)
8,124.00,*c1ccc(-c2ccc(N3C(=O)c4ccc(Oc5ccc6c(c5)C(=O)N(*)C6=O)cc4C3=O)c(OCCCCCCOc3ccc(/C=C/c4ccc(F)cc4)cc3)c2)cc1OCCCCCCOc1ccc(/C=C/c2ccc(F)cc2)cc1 (repeat unit)
9,142.00,*CCN(CCNC(=O)c1ccc2c(c1)C(=O)N(*)C2=O)c1ccc(/C=C/c2ccc([N+](=O)[O-])cc2)cc1 (repeat unit)
